Measurements published in patent US20240228460A1, “PROTEASE INHIBITORS AND METHODS OF MAKING SAME” (priority 2022, published 2024).
Read-outs that look alike come from different tables or passages of the source.

Key:
[1] = molecular target: SARS-CoV-2 M^pro protease (Severe acute respiratory syndrome coronavirus 2 (2019-nCoV) (SARS-CoV-2), UniProt P0DTD1); assay: Fluorogenic enzymatic assay, SARS-CoV-2 Mpro inhibition; type: biochemical; settings: quenched DABCYL/EDANS peptide substrate
cathepsin L = cathepsin L (Homo sapiens (Human), UniProt P07711); assay: Cathepsin L inhibition assay (Z-LR-AMC fluorogenic substrate); type: biochemical
Description: Assays to evaluate the inhibition of cathepsin L contained 25 pM cathepsin L (RD systems: 952-CY-010), 5 uM Z-LR-AMC fluorogenic peptide substrate, 100 nL of test compound in 100% DMSO, in a total of 10 uL of 20 mM KPO4, pH 6.0, 150 mM NaCl, 0.005% Tween20, 5 mM DTT in black low volume 384-well plates. The production of AMC (7-amino-4-methylcoumarin) was followed at 5 min intervals at 355 nm excitation, 460 nm emission in an Envision microplate reader (PerkinElmer). Reaction rates were determined by linear regression of the resulting progress curves. Rates were normalized to % inhibition, where 0% is equal to the rate in the presence of enzyme, and 100% is equal to the rate in the absence of enzyme. Nonlinear regression fits of the data to a one-site dose response curve were performed using XLFit (IDBS). […]

SARS-CoV-2 M^pro = SARS-CoV-2 M^pro (Severe acute respiratory syndrome coronavirus 2 (2019-nCoV) (SARS-CoV-2), UniProt P0DTD1); assay: biochemical; settings: 20 nM M^pro, 10 uM substrate, 1 hr, HPLC product peak area; read-out: IC50 against SARS-CoV-2 M^pro, HPLC-confirmed
[2] = 25 pM cathepsin L, 5 uM Z-LR-AMC, pH 6.0, read-out: IC50 Cathepsin L

cathepsin L, sequence (P07711 114-333): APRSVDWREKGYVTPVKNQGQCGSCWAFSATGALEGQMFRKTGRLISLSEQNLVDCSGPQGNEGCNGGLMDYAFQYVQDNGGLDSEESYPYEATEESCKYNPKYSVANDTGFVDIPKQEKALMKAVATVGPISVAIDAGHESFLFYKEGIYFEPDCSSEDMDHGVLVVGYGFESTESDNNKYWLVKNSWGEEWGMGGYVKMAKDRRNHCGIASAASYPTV

Cc1cc[nH]c(=O)c1C(=O)NCC(NC(=O)c1cncc2ccccc12)c1ccc2ccccc2c1 (racemic) [(101), N-{2-[(2-hydroxy-4-methylpyridin-3-yl)formamido]-1-(naphthalen-2-yl)ethyl}isoquinoline-4-carboxamide]
IC50 [1]: 1.7 µM
IC50 (cathepsin L; [2]): > 100 µM
IC50 (SARS-CoV-2 M^pro): 5.4 µM

Cc1cc[nH]c(=O)c1C(=O)NC[C@H](NC(=O)c1cncc2ccccc12)c1ccc2ccccc2c1 (single isomer, unassigned) [(102)]
IC50 [1]: 1.6 µM
IC50 (cathepsin L; [2]): 47.8 µM

Cc1cc[nH]c(=O)c1C(=O)NC[C@H](NC(=O)c1cncc2ccccc12)c1ccc2ccccc2c1 (single isomer, unassigned) [(103)]
IC50 [1]: 71.2 µM
IC50 (cathepsin L; [2]): 36.8 µM

Cc1cc(C(=O)NC(CNC(=O)c2cccc3sncc23)c2ccc3ccccc3c2)cc(=O)[nH]1 (stereo not drawn) [(104)]
IC50 [1]: 47.8 µM

O=C(NCC(NC(=O)c1cncc2sccc12)c1ccc2ccccc2c1)c1cc(O)cc(O)c1 (stereo not drawn) [(105)]
IC50 [1]: 61.3 µM

O=C(NCC(NC(=O)C1COc2ccccc21)c1ccccc1)c1cccc2cnsc12 (stereo not drawn) [(106)]
IC50 [1]: 8.9 µM
IC50 (cathepsin L; [2]): 10.2 µM
IC50 (SARS-CoV-2 M^pro): 28 µM

O=C(NCC(NC(=O)c1cncc2[nH]ccc12)c1ccc2ccccc2c1)c1ccsc1 (stereo not drawn) [(107)]
IC50 [1]: 19.2 µM

CC(=O)c1c(C)[nH]c(C(=O)N[C@H](CNC(=O)c2ccc(F)c3ccccc23)c2ccccc2)c1C [(108), (S)-4-acetyl-N-(2-(4-fluoro-1-naphthamido)-1-phenylethyl)-3,5-dimethyl-1H-pyrrole-2-carboxamide]
IC50 [1]: 32.2 µM

CC(C)C[C@H](NC(=O)OCc1ccccc1)C(=O)N[C@@H](CC1CCNC1=O)C(O)S(=O)(=O)O (stereo partly drawn) [GC-376, reference compound]
IC50 (cathepsin L; positive control tested in parallel, read-out: IC50 cathepsin L (positive control)): 0.002 µM
